The target in experiment [1] is T1, hCatB (Human Cathepsin B) (Homo sapiens, UniProt P07858).
T1 construct: gene CTSB; recombinant human enzyme, gift of J. Mort
As to the kind of experiment: fluorogenic inhibition assay, Z-FR-AMC ([…]). Format: biochemical. Particulars: 0.1 M sodium acetate pH 5.5, 2.5 mM DTT, 2.5 mM EDTA, room temperature.

The target of experiment [2] is T2, hCatL (human Cathepsin L) (Homo sapiens, UniProt P07711).
T2 construct: gene CTSL; native enzyme from human liver, commercial (Fisher Scientific)
T2 sequence (P07711 114-288): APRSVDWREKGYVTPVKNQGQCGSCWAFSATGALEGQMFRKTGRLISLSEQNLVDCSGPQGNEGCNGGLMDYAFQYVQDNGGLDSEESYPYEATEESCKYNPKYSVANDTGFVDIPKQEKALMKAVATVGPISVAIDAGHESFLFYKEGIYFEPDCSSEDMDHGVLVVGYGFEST
T2 sequence (P07711 292-333): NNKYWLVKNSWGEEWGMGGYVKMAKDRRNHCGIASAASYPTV
Kind of experiment: fluorogenic inhibition assay, Z-FR-AMC ([…]). Format: biochemical. Particulars: 0.1 M sodium acetate pH 5.5, 2.5 mM DTT, 2.5 mM EDTA, room temperature.

Regarding `CC(C)(C)[C@H](NC(=O)C(F)(F)F)C(=O)N1C[C@H]2[C@@H]([C@H]1C(=O)N[C@H](C#N)C[C@@H]1CCNC1=O)C2(C)C` [Nirmatrelvir], the “not inhibited by 10 μM” value in experiment [1] and in experiment [2] was above 10 µM throughout.

These data come from paper doi:10.1101/2025.10.03.680348v2, “Cathepsin K as a Key Protease in Processing of SARS-CoV-2 Spike Activation Sites and a Target of Dual-Inhibition” (biorxiv, 2025).
